Assay results from US20070249607A1, “NK-1 AND SEROTONIN TRANSPORTER INHIBITORS” (Bristol-Myers Squibb Company, priority 2006, published 2007).
Where two headings read alike, the source gives them in different places.

Key:
[1] = molecular target: T1, neurokinin-1 (NK-1) receptor (Homo sapiens, UniProt P25103); assay: NK-1 Binding assay ([125I] Substance P competition, U373 cell membranes)
T1 construct: a human glioblastoma-astrocytoma cell line that endogenously expresses the neurokinin-1 (NK-1) receptor; endogenous in cells; host or cells: U373 human glioblastoma-astrocytoma cells (membranes)
How it was run: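 Membranes were prepared from U373 human glioblastoma-astrocytoma cells, which express NK-1 endogenously, in 50 mM Tris-HCl pH 7.4 with 3 mM MnCl2, BSA and protease inhibitors. IC50 taken as the midpoint of the specific-binding displacement curve.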

[2] = molecular target: T2, human serotonin transporters (Homo sapiens, UniProt P31645); assay: Serotonin transporter binding assay ([3H]-citalopram competition, HEK-hSERT cell membranes)
T2 construct: expressed in transfected cells
How it was run: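 Membranes from HEK-293 cells stably expressing hSERT incubated 1 hr at 25 °C with 1 nM [3H]-citalopram and test compound in 50 mM Tris pH 7.4, 120 mM NaCl, 5 mM KCl; filtration read-out. Nonspecific binding: 10 μM fluoxetine. IC50 from displacement curve; Ki via Cheng–Prusoff.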

[3] = Table 2, U373 membranes, [125I] Substance P displacement, read-out: NK-1 IC50
[4] = Table 2, HEK-hSERT membranes, [3H]-citalopram displacement, read-out: SERT IC50
[5] = Table 1, U373 membranes, [125I] Substance P displacement, read-out: NK-1 IC50
[6] = Table 1, HEK-hSERT membranes, [3H]-citalopram displacement, read-out: SERT IC50

T2 sequence (P31645 whole entry): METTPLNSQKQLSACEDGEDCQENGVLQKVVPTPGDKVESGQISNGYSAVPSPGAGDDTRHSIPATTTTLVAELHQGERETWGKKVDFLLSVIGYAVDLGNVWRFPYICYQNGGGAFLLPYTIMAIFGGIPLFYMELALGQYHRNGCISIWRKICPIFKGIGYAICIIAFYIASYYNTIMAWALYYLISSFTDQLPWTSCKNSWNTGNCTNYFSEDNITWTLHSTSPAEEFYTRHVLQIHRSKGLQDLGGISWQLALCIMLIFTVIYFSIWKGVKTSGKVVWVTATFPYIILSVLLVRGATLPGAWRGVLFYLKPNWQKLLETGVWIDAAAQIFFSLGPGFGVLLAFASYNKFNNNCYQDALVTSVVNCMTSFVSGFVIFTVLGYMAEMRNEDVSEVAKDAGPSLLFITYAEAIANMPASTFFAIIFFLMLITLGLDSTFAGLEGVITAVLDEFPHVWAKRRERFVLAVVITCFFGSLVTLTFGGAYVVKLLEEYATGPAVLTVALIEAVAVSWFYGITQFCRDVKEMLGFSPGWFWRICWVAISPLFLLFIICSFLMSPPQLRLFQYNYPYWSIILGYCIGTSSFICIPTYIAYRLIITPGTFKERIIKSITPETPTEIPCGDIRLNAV
T1 sequence (P25103 whole entry): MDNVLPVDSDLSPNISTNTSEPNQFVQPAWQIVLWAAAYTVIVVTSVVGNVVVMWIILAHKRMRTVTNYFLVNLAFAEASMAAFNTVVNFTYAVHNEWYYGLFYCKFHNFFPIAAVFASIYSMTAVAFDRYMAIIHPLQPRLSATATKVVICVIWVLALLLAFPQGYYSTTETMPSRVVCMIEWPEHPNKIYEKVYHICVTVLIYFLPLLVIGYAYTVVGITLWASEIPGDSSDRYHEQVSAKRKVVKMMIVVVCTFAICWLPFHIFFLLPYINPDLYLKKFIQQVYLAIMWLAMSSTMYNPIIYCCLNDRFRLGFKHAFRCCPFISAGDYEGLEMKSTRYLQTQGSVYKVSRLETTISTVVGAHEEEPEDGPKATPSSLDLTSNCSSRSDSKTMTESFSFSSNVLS

| Structure (SMILES) | IC50 [1, 3] | IC50 [2, 4] | IC50 [1, 5] | IC50 [2, 6] | other results |
| --- | --- | --- | --- | --- | --- |
| Cc1ccc(-c2cc(COCC3(c4ccccc4)CCNCC3)cc(C(F)(F)F)c2)c2ccccc12 | > 300 nM | 100 to 300 nM | – | – | – |
| FC(F)(F)c1cc(COCC2(c3ccccc3)CCNCC2)cc(-c2ccccc2-c2ccccc2)c1 | – | – | > 300 nM | 100 to 300 nM | – |
| CN1CCC(COCc2cc(-c3ccc(C#N)cc3)cc(C(F)(F)F)c2)(c2ccc(F)cc2F)CC1 | 0.01 to 100 nM | – | – | – | IC50 [2]: 0.01 to 100 nM |
| FC(F)(F)c1cc(COCC2(c3ccccc3)CCNCC2)cc(-c2cccc(OCc3ccccc3)c2)c1 | 0.01 to 100 nM | 0.01 to 100 nM | – | – | – |
| FC(F)(F)c1cc(COCC2(c3ccccc3)CCNCC2)cc(-c2cnc3ccccc3c2)c1 | – | – | 100 to 300 nM | 0.01 to 100 nM | – |
| CN1CCC(COCc2cc(-c3ccc(C#N)cc3)cc(C(F)(F)F)c2)(c2ccncc2)CC1 | 0.01 to 100 nM | – | – | – | IC50 [2]: 0.01 to 100 nM |
| Cn1nc(C(F)(F)F)cc1-c1cc(COCC2(c3ccccc3)CCNCC2)cc(C(F)(F)F)c1 | – | – | > 300 nM | 0.01 to 100 nM | – |
| N#Cc1ccc(-c2cc(COCC3(c4ccccc4)CCN(Cc4ccccc4)CC3)cc(C(F)(F)F)c2)cc1 | 0.01 to 100 nM | > 300 nM | – | – | – |
| O=[N+]([O-])c1ccccc1-c1cc(COCC2(c3ccccc3)CCNCC2)cc(C(F)(F)F)c1 | 0.01 to 100 nM | 0.01 to 100 nM | – | – | – |
| CN1CCC(COCc2cc(-c3ccc(C#N)cc3)cc(C(F)(F)F)c2)(c2cccnc2)CC1 | 0.01 to 100 nM | – | – | – | IC50 [2]: 0.01 to 100 nM |
| Fc1cc(-c2cc(COCC3(c4ccccc4)CCNCC3)cc(C(F)(F)F)c2)cc(F)c1F | 0.01 to 100 nM | 0.01 to 100 nM | – | – | – |
| COc1ncc(-c2cc(COCC3(c4ccccc4)CCNCC3)cc(C(F)(F)F)c2)cn1 | – | – | 0.01 to 100 nM | 0.01 to 100 nM | – |
| COc1ccc(-c2cc(COCC3(c4ccccc4)CCNCC3)cc(C(F)(F)F)c2)c(F)c1F | 0.01 to 100 nM | 0.01 to 100 nM | – | – | – |
| Cc1cc(C)c(-c2cc(COCC3(c4ccccc4)CCNCC3)cc(C(F)(F)F)c2)c(C)c1 | – | – | > 300 nM | > 300 nM | – |
| CCOC(=O)c1cccc(-c2cc(COCC3(c4ccccc4)CCNCC3)cc(C(F)(F)F)c2)c1 | 100 to 300 nM | 0.01 to 100 nM | – | – | – |
| COc1c(F)cc(-c2cc(COCC3(c4ccccc4)CCNCC3)cc(C(F)(F)F)c2)cc1F | 0.01 to 100 nM | 0.01 to 100 nM | – | – | – |
| Fc1ncccc1-c1cc(COCC2(c3ccccc3)CCNCC2)cc(C(F)(F)F)c1 | – | – | 0.01 to 100 nM | 0.01 to 100 nM | – |
| COc1ccc(F)cc1-c1cc(COCC2(c3ccccc3)CCNCC2)cc(C(F)(F)F)c1 | 100 to 300 nM | 0.01 to 100 nM | – | – | – |
| O=C(OCc1ccccc1)c1ccc(-c2cc(COCC3(c4ccccc4)CCNCC3)cc(C(F)(F)F)c2)cc1 | 0.01 to 100 nM | 0.01 to 100 nM | – | – | – |
| CN1CCC(COCc2cc(-c3ccc(C#N)cc3)cc(C(F)(F)F)c2)(c2ccccc2F)CC1 | 0.01 to 100 nM | – | – | – | IC50 [2]: 0.01 to 100 nM |
| COc1ccc(-c2cc(COCC3(c4ccccc4)CCNCC3)cc(C(F)(F)F)c2)c(OC)n1 | 0.01 to 100 nM | 0.01 to 100 nM | – | – | – |
| Cn1cncc1-c1cc(COCC2(c3ccccc3)CCNCC2)cc(C(F)(F)F)c1 | – | – | 100 to 300 nM | 0.01 to 100 nM | – |
| FC(F)(F)c1cc(COCC2(c3ccccc3)CCNCC2)cc(-c2cnc(Cl)nc2)c1 | 0.01 to 100 nM | 0.01 to 100 nM | – | – | – |
| Cc1cc(C)cc(-c2cc(COCC3(c4ccccc4)CCNCC3)cc(C(F)(F)F)c2)c1 | – | – | > 300 nM | 0.01 to 100 nM | – |
| COc1cc(-c2cc(COCC3(c4ccccc4)CCNCC3)cc(C(F)(F)F)c2)c(F)cn1 | – | – | 100 to 300 nM | 0.01 to 100 nM | – |
| CC(C)N1CCC(COCc2cc(-c3ccc(C#N)cc3)cc(C(F)(F)F)c2)(c2ccccc2)CC1 | – | > 300 nM | – | – | IC50 [1]: 0.01 to 100 nM |

The next lines start with results.

| IC50 [1, 3] | IC50 [2, 4] | IC50 [1, 5] | IC50 [2, 6] | Structure (SMILES) | other results |
| --- | --- | --- | --- | --- | --- |
| – | – | 0.01 to 100 nM | 0.01 to 100 nM | Cc1ccc(-c2cc(COCC3(c4ccccc4)CCNCC3)cc(C(F)(F)F)c2)cc1[N+](=O)[O-] | – |
| 0.01 to 100 nM | 0.01 to 100 nM | – | – | N#Cc1ccc(-c2cc(COCC3(c4ccc(Br)cc4)CCNCC3)cc(C(F)(F)F)c2)cc1 | – |
| 0.01 to 100 nM | 0.01 to 100 nM | – | – | COc1c(C)cc(-c2ccc(C#N)cc2)cc1COCC1(c2ccccc2)CCNCC1 | – |
| – | – | 0.01 to 100 nM | 0.01 to 100 nM | COc1ccc(-c2cc(COCC3(c4ccccc4)CCNCC3)cc(C(F)(F)F)c2)cc1F | – |
| – | – | 0.01 to 100 nM | 0.01 to 100 nM | COc1ccc(-c2cc(COCC3(c4ccccc4)CCNCC3)cc(C(F)(F)F)c2)cc1 | – |
| 0.01 to 100 nM | 0.01 to 100 nM | – | – | CCCCOc1ccc(-c2cc(COCC3(c4ccccc4)CCNCC3)cc(C(F)(F)F)c2)cc1 | – |
| – | – | 100 to 300 nM | 0.01 to 100 nM | FC(F)(F)c1cc(COCC2(c3ccccc3)CCNCC2)cc(-c2ccc3cnccc3c2)c1 | – |
| – | – | 100 to 300 nM | 0.01 to 100 nM | FC(F)(F)c1cc(COCC2(c3ccccc3)CCNCC2)cc(-c2ccc(-c3ccccc3)cc2)c1 | – |
| 100 to 300 nM | 100 to 300 nM | – | – | CC(C)Oc1ccc(-c2cc(COCC3(c4ccccc4)CCNCC3)cc(C(F)(F)F)c2)cc1 | – |
| 0.01 to 100 nM | 0.01 to 100 nM | – | – | N#Cc1cc(COCC2(c3ccccc3)CCNCC2)cc(-c2ccc(F)cc2)c1 | – |
| – | – | 0.01 to 100 nM | 0.01 to 100 nM | Fc1ccccc1-c1cc(COCC2(c3ccccc3)CCNCC2)cc(C(F)(F)F)c1 | – |
| – | – | 0.01 to 100 nM | 0.01 to 100 nM | N#Cc1ccc(-c2cc(COCC3(c4ccccc4)CCNCC3)cc(C(F)(F)F)c2)cn1 | – |
| 0.01 to 100 nM | 0.01 to 100 nM | – | – | CC(C)OC(=O)c1ccc(-c2cc(COCC3(c4ccccc4)CCNCC3)cc(C(F)(F)F)c2)cc1 | – |
| 0.01 to 100 nM | 0.01 to 100 nM | – | – | N#Cc1ccc(-c2cc(C#N)cc(COCC3(c4ccccc4)CCNCC3)c2)cc1 | – |
| – | – | 0.01 to 100 nM | 0.01 to 100 nM | N#Cc1ccc(-c2cc(Br)cc(COCC3(c4ccccc4)CCNCC3)c2)cc1 | – |
| > 300 nM | 0.01 to 100 nM | – | – | FC(F)(F)Oc1cccc(-c2cc(COCC3(c4ccccc4)CCNCC3)cc(C(F)(F)F)c2)c1 | – |

| IC50 [1, 3] | IC50 [2, 4] | IC50 [1, 5] | IC50 [2, 6] | Structure (SMILES) | other results |
| --- | --- | --- | --- | --- | --- |
| 0.01 to 100 nM | 0.01 to 100 nM | – | – | CC(OCC1(c2ccccc2)CCNCC1)c1cc(Cl)cc(-c2ccc(C#N)cc2)c1 (centres unmarked) | – |
| 0.01 to 100 nM | 0.01 to 100 nM | – | – | N#Cc1ccc(-c2cc(Cl)cc(COCC3(c4ccccc4)CCNCC3)c2)cc1 | – |
| 0.01 to 100 nM | 0.01 to 100 nM | – | – | N#Cc1ccc(-c2cc(COCC3(c4cccc(Cl)c4)CCNCC3)cc(C(F)(F)F)c2)cc1 | – |
| – | – | 0.01 to 100 nM | 0.01 to 100 nM | FC(F)(F)c1cc(COCC2(c3ccccc3)CCNCC2)cc(-c2ccc(Cl)cc2)c1 | – |
| > 300 nM | 0.01 to 100 nM | – | – | CC(C)c1ccc(-c2cc(COCC3(c4ccccc4)CCNCC3)cc(C(F)(F)F)c2)cc1 | – |
| > 300 nM | 100 to 300 nM | – | – | CC(C)OC(=O)c1cccc(-c2cc(COCC3(c4ccccc4)CCNCC3)cc(C(F)(F)F)c2)c1 | – |
| – | – | 0.01 to 100 nM | 0.01 to 100 nM | FC(F)(F)c1cc(COCC2(c3ccccc3)CCNCC2)cc(-c2ccc(Cl)c(Cl)c2)c1 | – |
| 0.01 to 100 nM | 0.01 to 100 nM | – | – | COc1cc(-c2cc(COCC3(c4ccccc4)CCNCC3)cc(C(F)(F)F)c2)ccc1O | – |
| 0.01 to 100 nM | 100 to 300 nM | – | – | C[C@H](OCC1(c2ccccc2)CCNCC1)c1cc(-c2ccc(C#N)cc2)cc(C(F)(F)F)c1 | – |
| 100 to 300 nM | 0.01 to 100 nM | – | – | COC(=O)c1cccc(-c2cc(COCC3(c4ccccc4)CCNCC3)cc(C(F)(F)F)c2)c1 | – |
| 0.01 to 100 nM | 100 to 300 nM | – | – | N#Cc1ccc(-c2cc(COCC3(c4ccc(F)cc4-c4ccccc4)CCNCC3)cc(C(F)(F)F)c2)cc1 | – |
| > 300 nM | 100 to 300 nM | – | – | CC(C)Cc1ccc(-c2cc(COCC3(c4ccccc4)CCNCC3)cc(C(F)(F)F)c2)cc1 | – |
| – | – | 0.01 to 100 nM | 0.01 to 100 nM | N#Cc1cccc(-c2cc(COCC3(c4ccccc4)CCNCC3)cc(C(F)(F)F)c2)c1 | – |
| – | – | 0.01 to 100 nM | 0.01 to 100 nM | Oc1ccc(-c2cc(COCC3(c4ccccc4)CCNCC3)cc(C(F)(F)F)c2)cc1 | – |
| 0.01 to 100 nM | 0.01 to 100 nM | – | – | Cc1cc(-c2cc(COCC3(c4ccccc4)CCNCC3)cc(C(F)(F)F)c2)ccc1C#N | – |
| – | – | 0.01 to 100 nM | 0.01 to 100 nM | CC(OCC1(c2ccccc2)CCNCC1)c1cc(-c2ccc(C#N)cc2)cc(C(F)(F)F)c1 (centres unmarked) | – |
